Reference: paper PMC5392334, “Discovery and characterization of a novel irreversible EGFR mutants selective and potent kinase inhibitor CHMFL-EGFR-26 with a distinct binding mode” (Oncotarget, 2017)

Legend:
[1] = target: T1, TYK2(JH1domain-catalytic) (Homo sapiens, UniProt P29597); test: KinomeScan; assay type: binding; details: read-out: % control
T1 construct: TYK2(JH1domain-catalytic); purchased DiscoveRx KINOMEscan

NEK5 = target: T2, NEK5 (Homo sapiens, UniProt Q6P3R8); test: KinomeScan; assay type: binding; details: read-out: % control
T2 construct: purchased DiscoveRx KINOMEscan

CDK3 = target: T3, CDK3 (Homo sapiens, UniProt Q00526); test: KinomeScan; assay type: binding; details: read-out: % control
T3 construct: purchased DiscoveRx KINOMEscan

GRK3 = target: T4, GRK3 (Homo sapiens, UniProt P35626); test: KinomeScan; assay type: binding; details: read-out: % control
T4 construct: purchased DiscoveRx KINOMEscan

AMPK-alpha1 = target: T5, AMPK-alpha1 (Homo sapiens, UniProt Q13131); test: KinomeScan; assay type: binding; details: read-out: % control
T5 construct: purchased DiscoveRx KINOMEscan

FLT3(N841I) = target: T6, FLT3(N841I) (Homo sapiens, UniProt P36888, N841I); test: KinomeScan; assay type: binding; details: read-out: % control
T6 construct: purchased DiscoveRx KINOMEscan

FLT3(R834Q) = target: T7, FLT3(R834Q) (Homo sapiens, UniProt P36888, R834Q); test: KinomeScan; assay type: binding; details: read-out: % control
T7 construct: purchased DiscoveRx KINOMEscan

CDK4 = target: T8, CDK4 (Homo sapiens, UniProt P11802); test: KinomeScan; assay type: binding; details: read-out: % control
T8 construct: purchased DiscoveRx KINOMEscan

HPK1 = target: T9, HPK1 (Homo sapiens, UniProt Q92918); test: KinomeScan; assay type: binding; details: read-out: % control
T9 construct: purchased DiscoveRx KINOMEscan

FGFR2 = target: T10, FGFR2 (Homo sapiens, UniProt P21802); test: KinomeScan; assay type: binding; details: read-out: % control
T10 construct: purchased DiscoveRx KINOMEscan
T10 sequence (P21802 22-821): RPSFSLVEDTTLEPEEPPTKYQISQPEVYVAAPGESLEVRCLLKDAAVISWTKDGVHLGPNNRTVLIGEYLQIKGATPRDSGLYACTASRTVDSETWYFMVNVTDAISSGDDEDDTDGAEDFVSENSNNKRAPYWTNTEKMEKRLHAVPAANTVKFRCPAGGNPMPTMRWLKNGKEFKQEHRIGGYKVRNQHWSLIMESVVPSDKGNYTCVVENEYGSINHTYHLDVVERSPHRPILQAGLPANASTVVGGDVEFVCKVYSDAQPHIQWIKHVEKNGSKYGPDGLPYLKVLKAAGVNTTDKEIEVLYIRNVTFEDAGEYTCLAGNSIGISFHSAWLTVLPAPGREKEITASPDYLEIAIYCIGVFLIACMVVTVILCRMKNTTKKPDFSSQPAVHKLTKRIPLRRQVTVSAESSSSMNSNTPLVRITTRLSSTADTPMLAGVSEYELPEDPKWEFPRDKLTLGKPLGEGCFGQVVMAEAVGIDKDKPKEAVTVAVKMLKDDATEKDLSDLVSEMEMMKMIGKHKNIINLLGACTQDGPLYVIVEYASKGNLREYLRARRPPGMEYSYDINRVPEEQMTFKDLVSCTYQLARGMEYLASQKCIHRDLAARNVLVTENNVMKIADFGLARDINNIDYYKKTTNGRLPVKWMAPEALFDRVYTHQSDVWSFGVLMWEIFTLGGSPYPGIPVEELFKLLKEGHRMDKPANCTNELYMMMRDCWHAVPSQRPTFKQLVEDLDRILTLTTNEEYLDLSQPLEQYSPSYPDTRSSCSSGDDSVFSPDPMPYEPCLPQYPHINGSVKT

TSSK1B = target: T11, TSSK1B (Homo sapiens, UniProt Q9BXA7); test: KinomeScan; assay type: binding; details: read-out: % control
T11 construct: purchased DiscoveRx KINOMEscan

ITK = target: T12, ITK (Homo sapiens, UniProt Q08881); test: KinomeScan; assay type: binding; details: read-out: % control
T12 construct: purchased DiscoveRx KINOMEscan

PC-9 (EGFR del19) = test: Anti-proliferation, NSCLC cell lines (CellTiter-Glo); assay type: cell-based; details: Homo sapiens, 72 hours, triplet testing
Procedure: (§1) The human cancer cell lines H1975, HCC827, H2122, CHO, CHL and H1355 were purchased from the American Type Culture Collection (ATCC) (Manassas, VA, USA). PC9 cell line was purchased from the Sigma-Aldrich (St. Louis, MO, USA). A549, H3255 were purchased from Cobioer Biosciences CO., LTD (Nanjing, China). […] A549 and H1355 were cultured in F-12K Nutrient Mixture (kaighn's Modification) (Gibco, USA) with 10% FBS and supplemented with 2% L-glutamine and 1% pen/strep. H3255 was cultured in BEGM media (LONZA, USA) with 10% FBS and supplemented with 2% L-glutamine and 1% pen/strep.

H1703 (EGFR wt) = test: as above; assay type: cell-based; details: Homo sapiens, NCI-H1703, 72 hours, triplet testing
Procedure: as §1

H2122 (EGFR wt) = test: as above; assay type: cell-based; details: Homo sapiens, NCI-H2122, 72 hours, triplet testing
Procedure: as §1

HCC827 (EGFR del19) = test: as above; assay type: cell-based; details: Homo sapiens, 72 hours, triplet testing
Procedure: as §1

H3255 (EGFRL858R) = test: as above; assay type: cell-based; details: Homo sapiens, NCI-H3255, 72 hours, triplet testing
Procedure: as §1

A549 (EGFR wt) = test: as above; assay type: cell-based; details: Homo sapiens, 72 hours, triplet testing
Procedure: as §1

H1355(EGFR wt) = test: as above; assay type: cell-based; details: Homo sapiens, NCI-H1355, 72 hours, triplet testing
Procedure: as §1

CSNK1G3 = target: T13, CSNK1G3 (Homo sapiens, UniProt Q9Y6M4); test: KinomeScan; assay type: binding; details: read-out: % control
T13 construct: purchased DiscoveRx KINOMEscan

ULK2 = target: T14, ULK2 (Homo sapiens, UniProt Q8IYT8); test: KinomeScan; assay type: binding; details: read-out: % control
T14 construct: purchased DiscoveRx KINOMEscan

PCTK3 = target: T15, PCTK3 (Homo sapiens, UniProt Q07002); test: KinomeScan; assay type: binding; details: read-out: % control
T15 construct: purchased DiscoveRx KINOMEscan

MST3 = target: T16, MST3 (Homo sapiens, UniProt Q9Y6E0); test: KinomeScan; assay type: binding; details: read-out: % control
T16 construct: purchased DiscoveRx KINOMEscan

FLT3(ITD,D835V) = test: KinomeScan; assay type: binding; details: 1μM
SGK2 = target: T17, SGK2 (Homo sapiens, UniProt Q9HBY8); test: KinomeScan; assay type: binding; details: read-out: % control
T17 construct: purchased DiscoveRx KINOMEscan
T17 sequence (Q9HBY8 whole entry): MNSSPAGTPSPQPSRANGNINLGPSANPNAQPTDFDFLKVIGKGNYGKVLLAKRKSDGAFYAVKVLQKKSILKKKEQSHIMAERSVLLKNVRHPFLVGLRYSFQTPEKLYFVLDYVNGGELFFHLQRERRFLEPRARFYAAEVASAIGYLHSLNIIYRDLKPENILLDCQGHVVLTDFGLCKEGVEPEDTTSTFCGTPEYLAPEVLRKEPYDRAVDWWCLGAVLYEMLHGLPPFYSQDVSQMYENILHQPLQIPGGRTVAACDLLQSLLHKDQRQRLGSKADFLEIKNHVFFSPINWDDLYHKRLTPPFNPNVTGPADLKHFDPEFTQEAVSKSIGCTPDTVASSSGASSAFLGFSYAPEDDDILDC

BRSK2 = target: T18, BRSK2 (Homo sapiens, UniProt Q8IWQ3); test: KinomeScan; assay type: binding; details: read-out: % control
T18 construct: purchased DiscoveRx KINOMEscan

ROS1 = target: T19, ROS1 (Homo sapiens, UniProt P08922); test: KinomeScan; assay type: binding; details: read-out: % control
T19 construct: purchased DiscoveRx KINOMEscan
T19 sequence (P08922 28-2347): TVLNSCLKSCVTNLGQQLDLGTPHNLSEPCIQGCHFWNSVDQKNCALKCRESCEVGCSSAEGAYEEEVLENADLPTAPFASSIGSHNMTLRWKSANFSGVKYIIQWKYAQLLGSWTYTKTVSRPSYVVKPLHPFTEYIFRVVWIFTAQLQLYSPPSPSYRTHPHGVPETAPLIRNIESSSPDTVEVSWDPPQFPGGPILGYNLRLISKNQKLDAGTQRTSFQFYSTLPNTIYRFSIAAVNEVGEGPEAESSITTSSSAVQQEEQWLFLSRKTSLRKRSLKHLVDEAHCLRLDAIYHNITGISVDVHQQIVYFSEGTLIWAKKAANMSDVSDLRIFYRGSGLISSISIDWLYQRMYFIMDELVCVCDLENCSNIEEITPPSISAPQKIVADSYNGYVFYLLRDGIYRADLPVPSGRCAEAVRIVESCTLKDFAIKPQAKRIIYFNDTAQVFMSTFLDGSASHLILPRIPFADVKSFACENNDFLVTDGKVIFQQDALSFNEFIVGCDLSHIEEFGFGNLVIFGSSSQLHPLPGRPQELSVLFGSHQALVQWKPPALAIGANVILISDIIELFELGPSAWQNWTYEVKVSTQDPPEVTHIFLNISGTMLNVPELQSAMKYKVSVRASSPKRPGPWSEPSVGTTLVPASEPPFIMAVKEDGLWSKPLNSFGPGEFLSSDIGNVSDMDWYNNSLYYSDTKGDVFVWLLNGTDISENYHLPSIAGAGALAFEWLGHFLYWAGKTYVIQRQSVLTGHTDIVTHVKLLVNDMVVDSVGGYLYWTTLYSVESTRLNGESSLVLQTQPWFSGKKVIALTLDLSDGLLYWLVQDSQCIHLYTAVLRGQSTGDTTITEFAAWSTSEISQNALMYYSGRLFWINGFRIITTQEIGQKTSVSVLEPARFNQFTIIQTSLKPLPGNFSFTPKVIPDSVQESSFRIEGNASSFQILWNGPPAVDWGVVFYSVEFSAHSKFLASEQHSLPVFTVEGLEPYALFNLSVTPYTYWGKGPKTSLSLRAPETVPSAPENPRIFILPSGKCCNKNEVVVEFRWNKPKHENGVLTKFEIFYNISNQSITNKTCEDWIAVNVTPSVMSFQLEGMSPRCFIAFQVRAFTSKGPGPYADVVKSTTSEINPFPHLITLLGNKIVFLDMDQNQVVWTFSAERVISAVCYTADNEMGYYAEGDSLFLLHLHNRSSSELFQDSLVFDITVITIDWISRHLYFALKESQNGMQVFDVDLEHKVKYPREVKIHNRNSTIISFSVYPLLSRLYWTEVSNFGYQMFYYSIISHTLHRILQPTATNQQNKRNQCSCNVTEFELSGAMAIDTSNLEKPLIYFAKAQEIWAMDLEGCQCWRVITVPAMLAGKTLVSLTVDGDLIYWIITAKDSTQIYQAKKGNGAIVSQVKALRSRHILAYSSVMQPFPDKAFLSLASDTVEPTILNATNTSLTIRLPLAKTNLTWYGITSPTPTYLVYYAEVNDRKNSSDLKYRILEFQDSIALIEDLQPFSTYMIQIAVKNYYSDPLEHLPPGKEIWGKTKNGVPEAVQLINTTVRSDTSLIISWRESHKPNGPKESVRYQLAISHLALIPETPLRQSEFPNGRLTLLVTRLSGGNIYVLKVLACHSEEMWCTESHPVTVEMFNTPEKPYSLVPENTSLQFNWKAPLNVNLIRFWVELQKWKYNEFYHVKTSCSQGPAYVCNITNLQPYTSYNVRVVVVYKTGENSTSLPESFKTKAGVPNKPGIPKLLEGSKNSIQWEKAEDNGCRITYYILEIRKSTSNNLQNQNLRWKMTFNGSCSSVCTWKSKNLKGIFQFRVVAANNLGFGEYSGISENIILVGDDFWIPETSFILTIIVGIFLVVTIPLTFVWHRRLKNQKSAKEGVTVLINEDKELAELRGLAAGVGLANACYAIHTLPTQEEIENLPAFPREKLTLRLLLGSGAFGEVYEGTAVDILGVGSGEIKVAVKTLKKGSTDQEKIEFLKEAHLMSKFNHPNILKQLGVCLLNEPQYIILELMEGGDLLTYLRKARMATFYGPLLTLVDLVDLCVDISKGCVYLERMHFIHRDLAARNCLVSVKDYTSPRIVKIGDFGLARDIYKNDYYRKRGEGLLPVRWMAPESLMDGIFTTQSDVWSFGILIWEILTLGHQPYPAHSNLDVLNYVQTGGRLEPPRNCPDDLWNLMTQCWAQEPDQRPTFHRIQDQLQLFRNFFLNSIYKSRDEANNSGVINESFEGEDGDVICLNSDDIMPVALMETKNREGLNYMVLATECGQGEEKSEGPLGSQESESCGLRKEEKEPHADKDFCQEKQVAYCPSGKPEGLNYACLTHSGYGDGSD

MEK1 = target: T20, MEK1 (Homo sapiens, UniProt Q02750); test: KinomeScan; assay type: binding; details: read-out: % control
T20 construct: purchased Invitrogen (SelectScreen service)

RET(V804L) = target: T21, RET(V804L) (Homo sapiens, UniProt P07949, V804L); test: KinomeScan; assay type: binding; details: read-out: % control
T21 construct: purchased DiscoveRx KINOMEscan

SRC = target: T22, SRC (Homo sapiens, UniProt P12931); test: KinomeScan; assay type: binding; details: read-out: % control
T22 construct: purchased DiscoveRx KINOMEscan

DCAMKL1 = target: T23, DCAMKL1 (Homo sapiens, UniProt O15075); test: KinomeScan; assay type: binding; details: read-out: % control
T23 construct: purchased DiscoveRx KINOMEscan

GRK1 = target: T24, GRK1 (Homo sapiens, UniProt Q15835); test: KinomeScan; assay type: binding; details: read-out: % control
T24 construct: purchased DiscoveRx KINOMEscan

CAMKK2 = target: T25, CAMKK2 (Homo sapiens, UniProt Q96RR4); test: KinomeScan; assay type: binding; details: read-out: % control
T25 construct: purchased DiscoveRx KINOMEscan

PIK4CB = target: T26, PIK4CB (Homo sapiens, UniProt Q9UBF8); test: KinomeScan; assay type: binding; details: read-out: % control
T26 construct: purchased DiscoveRx KINOMEscan

DYRK1B = target: T27, DYRK1B (Homo sapiens, UniProt Q9Y463); test: KinomeScan; assay type: binding; details: read-out: % control
T27 construct: purchased DiscoveRx KINOMEscan

CSF1R-autoinhibited = target: T28, CSF1R-autoinhibited (Homo sapiens, UniProt P07333); test: KinomeScan; assay type: binding; details: read-out: % control
T28 construct: purchased DiscoveRx KINOMEscan
T28 sequence (P07333 539-972 limits assumed): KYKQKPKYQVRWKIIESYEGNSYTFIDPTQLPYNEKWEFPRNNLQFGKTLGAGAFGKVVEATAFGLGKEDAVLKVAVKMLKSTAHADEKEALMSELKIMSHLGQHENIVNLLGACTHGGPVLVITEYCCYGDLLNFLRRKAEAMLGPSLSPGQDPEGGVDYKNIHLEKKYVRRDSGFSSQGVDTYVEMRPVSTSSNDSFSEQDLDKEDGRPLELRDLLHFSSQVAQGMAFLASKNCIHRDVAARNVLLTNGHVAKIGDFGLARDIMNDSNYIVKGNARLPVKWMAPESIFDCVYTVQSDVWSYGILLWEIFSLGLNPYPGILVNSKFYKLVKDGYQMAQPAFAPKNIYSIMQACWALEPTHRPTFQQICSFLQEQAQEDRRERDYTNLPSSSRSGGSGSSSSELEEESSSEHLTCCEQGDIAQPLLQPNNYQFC

TRKC = target: T29, TRKC (Homo sapiens, UniProt Q16288); test: KinomeScan; assay type: binding; details: read-out: % control
T29 construct: purchased DiscoveRx KINOMEscan

EGFR(L858R,T790M) = target: T30, EGFR(L858R,T790M) (Homo sapiens, UniProt P00533, L858R/T790M); test: KinomeScan; assay type: binding; details: read-out: % control
T30 construct: purchased DiscoveRx KINOMEscan
T30 sequence (P00533 25-1210 T790M/L858R): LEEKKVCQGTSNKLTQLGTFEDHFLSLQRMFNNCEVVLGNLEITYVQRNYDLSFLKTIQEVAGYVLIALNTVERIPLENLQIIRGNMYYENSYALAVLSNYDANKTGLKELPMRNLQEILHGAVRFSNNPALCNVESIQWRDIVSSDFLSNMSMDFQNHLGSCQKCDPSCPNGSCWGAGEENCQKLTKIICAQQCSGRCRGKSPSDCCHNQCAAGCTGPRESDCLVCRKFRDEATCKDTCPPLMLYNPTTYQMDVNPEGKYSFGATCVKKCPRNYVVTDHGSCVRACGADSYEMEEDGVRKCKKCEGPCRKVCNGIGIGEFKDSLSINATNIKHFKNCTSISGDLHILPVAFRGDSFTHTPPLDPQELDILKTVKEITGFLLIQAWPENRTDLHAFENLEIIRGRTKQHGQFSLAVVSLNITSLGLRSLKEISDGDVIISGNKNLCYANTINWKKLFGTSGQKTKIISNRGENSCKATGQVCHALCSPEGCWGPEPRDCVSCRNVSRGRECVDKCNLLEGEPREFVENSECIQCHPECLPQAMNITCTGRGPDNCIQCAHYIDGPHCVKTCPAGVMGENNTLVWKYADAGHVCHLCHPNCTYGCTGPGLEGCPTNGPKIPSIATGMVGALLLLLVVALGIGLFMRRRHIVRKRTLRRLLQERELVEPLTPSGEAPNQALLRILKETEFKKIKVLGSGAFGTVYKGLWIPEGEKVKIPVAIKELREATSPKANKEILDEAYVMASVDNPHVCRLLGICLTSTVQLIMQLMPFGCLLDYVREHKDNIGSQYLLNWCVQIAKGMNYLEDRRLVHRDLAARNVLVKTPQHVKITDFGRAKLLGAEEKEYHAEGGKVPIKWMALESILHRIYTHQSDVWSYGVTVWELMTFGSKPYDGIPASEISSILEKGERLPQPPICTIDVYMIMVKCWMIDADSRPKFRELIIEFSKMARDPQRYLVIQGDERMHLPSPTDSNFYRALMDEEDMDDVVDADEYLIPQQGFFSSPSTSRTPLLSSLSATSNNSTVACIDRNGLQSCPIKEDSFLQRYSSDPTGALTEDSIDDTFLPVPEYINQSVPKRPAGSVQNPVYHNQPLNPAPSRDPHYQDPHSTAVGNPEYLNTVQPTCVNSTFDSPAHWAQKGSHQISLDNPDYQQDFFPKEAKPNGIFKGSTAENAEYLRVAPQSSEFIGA

C=CC(=O)N1CCC[C@@H](n2nc(-c3ccc(OCc4cccc(C)n4)c(Cl)c3)c3c(N)ncnc32)C1 [CHMFL-EGFR-26]
remaining binding at 1 µM [1]: 100% | remaining binding at 1 µM (NEK5): 93% | remaining binding at 1 µM (CDK3): 84% | remaining binding at 1 µM (GRK3): 100% | remaining binding at 1 µM (AMPK-alpha1): 79% | remaining binding at 1 µM (FLT3(N841I)): 93% | remaining binding at 1 µM (FLT3(R834Q)): 100% | remaining binding at 1 µM (CDK4): 100% | remaining binding at 1 µM (HPK1): 100% | remaining binding at 1 µM (FGFR2): 100% | remaining binding at 1 µM (TSSK1B): 89% | remaining binding at 1 µM (ITK): 96% | GI50 (PC-9 (EGFR del19)): 0.035 µM | GI50 (H1703 (EGFR wt)): 7.7 µM | GI50 (H2122 (EGFR wt)): 3.5 µM | GI50 (HCC827 (EGFR del19)): 0.036 µM | GI50 (H3255 (EGFRL858R)): 0.027 µM | GI50 (A549 (EGFR wt)): 5.4 µM | GI50 (H1355(EGFR wt)): 8.1 µM | remaining binding at 1 µM (CSNK1G3): 98% | remaining binding at 1 µM (ULK2): 97% | remaining binding at 1 µM (PCTK3): 94% | remaining binding at 1 µM (MST3): 39% | % control (FLT3(ITD,D835V)): 99% | remaining binding at 1 µM (SGK2): 100% | remaining binding at 1 µM (BRSK2): 97% | remaining binding at 1 µM (ROS1): 89% | remaining binding at 1 µM (MEK1): 0.3% | remaining binding at 1 µM (RET(V804L)): 100% | remaining binding at 1 µM (SRC): 100% | remaining binding at 1 µM (DCAMKL1): 88% | remaining binding at 1 µM (GRK1): 88% | remaining binding at 1 µM (CAMKK2): 75% | remaining binding at 1 µM (PIK4CB): 100% | remaining binding at 1 µM (DYRK1B): 85% | remaining binding at 1 µM (CSF1R-autoinhibited): 100% | remaining binding at 1 µM (TRKC): 100% | remaining binding at 1 µM (EGFR(L858R,T790M)): 2.8%
